Test results from PMC11730591 (Scientific Reports, 2025).
“Also recorded” adds a separate entry of the source.

Experiments:
α-glucosidase [1] = molecular target: T1, α-glucosidase (Saccharomyces cerevisiae, UniProt P53341); assay: In vitro α-glucosidase inhibition assay; type: biochemical; conditions: for α-Glucosidase inhibitory activity described in words: SAR discussion
α-glucosidase [2] = molecular target: T1, α-glucosidase; assay: Enzyme kinetic studies; type: biochemical

T1 sequence (P53341 whole entry): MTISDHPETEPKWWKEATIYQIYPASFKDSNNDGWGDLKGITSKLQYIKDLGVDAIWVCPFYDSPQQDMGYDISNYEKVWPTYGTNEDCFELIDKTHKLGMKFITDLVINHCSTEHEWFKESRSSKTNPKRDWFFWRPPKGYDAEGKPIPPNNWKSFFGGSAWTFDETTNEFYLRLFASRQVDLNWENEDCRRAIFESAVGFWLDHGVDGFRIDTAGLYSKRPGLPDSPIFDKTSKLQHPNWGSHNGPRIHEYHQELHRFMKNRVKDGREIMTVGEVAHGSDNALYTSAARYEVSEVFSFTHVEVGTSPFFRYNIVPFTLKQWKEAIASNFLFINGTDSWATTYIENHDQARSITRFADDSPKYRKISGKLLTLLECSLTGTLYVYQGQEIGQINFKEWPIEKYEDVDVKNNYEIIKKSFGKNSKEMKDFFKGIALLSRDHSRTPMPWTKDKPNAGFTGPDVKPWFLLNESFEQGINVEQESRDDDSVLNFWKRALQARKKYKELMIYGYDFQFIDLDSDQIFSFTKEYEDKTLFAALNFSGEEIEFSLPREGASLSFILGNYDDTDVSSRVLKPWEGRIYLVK

α-Glucosidase inhibitory activity described in words (α-glucosidase [1])	Ki (α-glucosidase [2]) [µM]	Fold improvement in activity compared to acarbose (α-glucosidase [1]; versus acarbose as positive control) [fold]	SMILES	Type of inhibition (Lineweaver-Burk plot) (α-glucosidase [2]; Km increased, Vmax unchanged with increasing inhibitor concentration)
diminished activity	–	–	Cc1ccccc1NC(=O)CN1CCN(c2nc3ccccc3cc2/C=N/NC(N)=S)CC1 [Compound 7h, (E)-2-(4-(3-((2-carbamothioylhydrazono)methyl)quinolin-2-yl)piperazin-1-yl)-N-(o-tolyl)acetamide]	–
–	32	15	COc1ccc(OC)c(NC(=O)CN2CCN(c3nc4ccccc4cc3/C=N/NC(N)=S)CC2)c1 [Compound 7j, (E)-2-(4-(3-((2-carbamothioylhydrazono)methyl)quinolin-2-yl)piperazin-1-yl)-N-(2,5-dimethoxyphenyl)acetamide]	competitive inhibitor; also recorded: competitive inhibition
poor activity	–	–	COc1ccc(CNC(=O)CN2CCN(c3nc4ccccc4cc3/C=N/NC(N)=S)CC2)cc1 [Compound 7n, (E)-2-(4-(3-((2-carbamothioylhydrazono)methyl)quinolin-2-yl)piperazin-1-yl)-N-(4-methoxybenzyl)acetamide]	–
